In patent US10259810B2, “N-sulfonylated pyrazolo[3,4-b]pyridin-6-carboxamides and method of use” (AbbVie S.à.r.l., priority 2015, dated 2019):

Columns and labels:
Type in all cases: cell-based
ΔF508-CFTR [1] = target: T1, ΔF508-CFTR (Homo sapiens, UniProt P13569, DEL508-508); experiment: CFTR cell surface levels using HRP-tagged ΔF508-CFTR expressing CFBE cells, in the presence of a co-corrector; settings: HRP-tagged ΔF508-CFTR CFBE cells, in the presence of 3 μM co-corrector; for EC50: read-out: EC50
T1 construct: host or cells: CFBE41o-, doxycycline-inducible
T1 sequence (P13569 with tags, fused parts or gaps DEL508-508): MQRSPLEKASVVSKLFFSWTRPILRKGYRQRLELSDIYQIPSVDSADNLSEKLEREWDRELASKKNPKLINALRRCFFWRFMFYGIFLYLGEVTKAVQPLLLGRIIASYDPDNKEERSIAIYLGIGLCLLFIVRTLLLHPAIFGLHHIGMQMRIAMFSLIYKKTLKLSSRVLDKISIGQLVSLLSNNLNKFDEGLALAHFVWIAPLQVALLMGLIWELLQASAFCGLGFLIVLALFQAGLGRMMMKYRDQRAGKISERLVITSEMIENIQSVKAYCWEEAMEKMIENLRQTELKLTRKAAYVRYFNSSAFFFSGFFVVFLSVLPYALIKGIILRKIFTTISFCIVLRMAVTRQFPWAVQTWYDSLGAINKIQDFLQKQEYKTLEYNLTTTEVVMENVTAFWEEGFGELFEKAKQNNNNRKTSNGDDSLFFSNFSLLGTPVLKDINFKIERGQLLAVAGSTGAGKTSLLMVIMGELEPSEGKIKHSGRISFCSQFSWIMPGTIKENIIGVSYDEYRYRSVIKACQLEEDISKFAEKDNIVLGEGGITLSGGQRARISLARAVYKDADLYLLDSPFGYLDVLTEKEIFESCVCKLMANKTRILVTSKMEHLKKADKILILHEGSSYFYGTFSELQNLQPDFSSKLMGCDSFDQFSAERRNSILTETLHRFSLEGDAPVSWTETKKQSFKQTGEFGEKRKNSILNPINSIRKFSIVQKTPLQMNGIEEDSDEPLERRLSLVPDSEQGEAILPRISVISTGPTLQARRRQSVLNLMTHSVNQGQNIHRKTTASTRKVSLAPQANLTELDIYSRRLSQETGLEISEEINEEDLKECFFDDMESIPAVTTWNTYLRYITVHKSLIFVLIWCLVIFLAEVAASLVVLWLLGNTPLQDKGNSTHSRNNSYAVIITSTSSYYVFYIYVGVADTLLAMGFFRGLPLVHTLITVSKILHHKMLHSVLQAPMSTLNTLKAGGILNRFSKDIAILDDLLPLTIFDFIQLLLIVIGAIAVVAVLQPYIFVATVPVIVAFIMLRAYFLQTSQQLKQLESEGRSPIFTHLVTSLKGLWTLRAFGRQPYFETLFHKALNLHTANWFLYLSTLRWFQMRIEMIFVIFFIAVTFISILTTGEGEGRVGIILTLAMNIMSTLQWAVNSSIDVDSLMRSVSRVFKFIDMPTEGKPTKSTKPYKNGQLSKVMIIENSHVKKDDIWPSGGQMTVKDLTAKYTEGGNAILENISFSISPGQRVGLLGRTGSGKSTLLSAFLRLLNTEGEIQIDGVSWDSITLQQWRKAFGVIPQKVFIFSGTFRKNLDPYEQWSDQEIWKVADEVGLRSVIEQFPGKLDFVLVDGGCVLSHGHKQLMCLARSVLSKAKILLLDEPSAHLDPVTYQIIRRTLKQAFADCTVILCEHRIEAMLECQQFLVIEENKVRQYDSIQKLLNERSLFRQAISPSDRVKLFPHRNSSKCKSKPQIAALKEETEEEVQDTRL
Method in brief: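 Chemiluminescent read-out of surface HRP (15 min, dark) after PBS washes. Activity is normalized as 100×(sample−DMSO)/(3 μM co-corrector alone−DMSO).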

ΔF508-CFTR [2] = target: T1, ΔF508-CFTR; experiment: CFTR cell surface levels using HRP-tagged ΔF508-CFTR expressing CFBE cells, intrinsic corrector capacity; design: % Activation: concentration or dose not given beside the values; settings: HRP-tagged ΔF508-CFTR expressing CFBE41o- cells, compound alone (intrinsic corrector capacity), 20 hours at 33° C.; for EC50: read-out: EC50
Method in brief: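 Read-out: chemiluminescent HRP activity of ECL4-HRP-tagged ΔF508-CFTR at the cell surface, 15 min substrate in dark. Normalized as 100×(sample−DMSO)/(positive control−DMSO).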

CFTR ΔF508 = target: T2, CFTR ΔF508 (Homo sapiens, UniProt P13569, DEL508-508); experiment: Chronic TECC assay, primary bronchial epithelial cells of CF patients homozygous for CFTR ΔF508 (corrector, co-corrector and potentiator); settings: chronic TECC, AUC = full area under the curve upon forskolin stimulation; for EC50: read-out: EC50 (nM) (AUC**); for % Activity at 1 μM (AUC**): test compound at 1 μM; for % Activity at 3 μM (AUC**): test compound at 3 μM
T2 construct: bronchial epithelial cells isolated from CF patients homozygous for the CFTR ΔF508 mutation; McGill University; Asterand; University of North Carolina hAEC-CF; host or cells: primary human bronchial epithelial cells from CF patients homozygous for ΔF508, differentiated at air-liquid interface
T2 sequence (P13569 with tags, fused parts or gaps DEL508-508): as above
Method in brief: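 Primary bronchial epithelial cells from ΔF508-homozygous CF patients on collagen IV-coated Transwells were chronically treated with test compound plus corrector and potentiator, which were re-added before recording. Ieq was derived from PD and Rt in NaCl-Ringer, pH 7.4, at 37° C, with apical amiloride and bilateral forskolin, recorded every 2 min over 20 min. Ieq increase was normalized to controls, and EC50 was taken from per-well concentrations.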

SMILES	% Activation (ΔF508-CFTR [1]) [%]	EC50 (ΔF508-CFTR [1]) [nM]	% Activation (ΔF508-CFTR [2]) [%]	EC50 (ΔF508-CFTR [2]) [nM]	EC50 (CFTR ΔF508) [nM]	% Activity at 1 μM (AUC**) (CFTR ΔF508) [%]	% Activity at 3 μM (AUC**) (CFTR ΔF508) [%]
CN(C)S(=O)(=O)NC(=O)c1cc(N2CCN(c3ccncc3)CC2)c2c(C3CCC3)nn(C3CCCCC3)c2n1 [Compound 469, 3-cyclobutyl-1-cyclohexyl-N-(dimethylsulfamoyl)-4-[4-(pyridin-4-yl)piperazin-1-yl]-1H-pyrazolo[3,4-b]pyridine-6-carboxamide]	469.4	125	253.8	204	108	293.3333	–
CCS(=O)(=O)NC(=O)c1cc(N2CCN(c3ccncc3)CC2)c2c(C3CCC3)nn(C3CCCCC3)c2n1 [Compound 470, 3-cyclobutyl-1-cyclohexyl-N-(ethanesulfonyl)-4-[4-(pyridin-4-yl)piperazin-1-yl]-1H-pyrazolo[3,4-b]pyridine-6-carboxamide]	485.5	115	275.4	231	–	210	–
COCCN(C)S(=O)(=O)NC(=O)c1cc(N2CCC(N3CCOCC3)CC2)c2c(C3CCC3)nn(-c3ccc(F)cc3)c2n1 [Compound 471, 3-cyclobutyl-1-(4-fluorophenyl)-N-[(2-methoxyethyl)(methyl)sulfamoyl]-4-[4-(morpholin-4-yl)piperidin-1-yl]-1H-pyrazolo[3,4-b]pyridine-6-carboxamide]	446.07	122	240.2	230	–	296.6667	–
CN(C)S(=O)(=O)NC(=O)c1cc(N2CCC(N3CCCCC3)CC2)c2c(C3CCC3)nn(-c3ccc(F)cc3)c2n1 [Compound 472, 4-([1,4'-bipiperidin]-1'-yl)-3-cyclobutyl-N-(dimethylsulfamoyl)-1-(4-fluorophenyl)-1H-pyrazolo[3,4-b]pyridine-6-carboxamide]	399.79	249	210.57	681	34.2	181.0865	–
COCC1CCN(c2cc(C(=O)NS(C)(=O)=O)nc3c2c(C2CCC2)nn3-c2ccnc(C3CCOCC3)c2)CC1 [Compound 473, 3-cyclobutyl-N-(methanesulfonyl)-4-[4-(methoxymethyl)piperidin-1-yl]-1-[2-(oxan-4-yl)pyridin-4-yl]-1H-pyrazolo[3,4-b]pyridine-6-carboxamide]	370.7	43.9	166.3	70.8	–	243.3333	–
COc1cc(-n2nc(C3CCC3)c3c(N4CCC(N5CCOCC5)CC4)cc(C(=O)NS(C)(=O)=O)nc32)ccn1 [Compound 474, 3-cyclobutyl-N-(methanesulfonyl)-1-(2-methoxypyridin-4-yl)-4-[4-(morpholin-4-yl)piperidin-1-yl]-1H-pyrazolo[3,4-b]pyridine-6-carboxamide]	390.2	524	194.5	581	–	226.6667	–
C[C@@H](C1CCN(c2cc(C(=O)NS(=O)(=O)N(C)C)nc3c2c(C2CCC2)nn3-c2ccc(F)cc2)CC1)N1CCOCC1 [Compound 480, 3-cyclobutyl-N-(dimethylsulfamoyl)-1-(4-fluorophenyl)-4-{4-[(1S)-1-(morpholin-4-yl)ethyl]piperidin-1-yl}-1H-pyrazolo[3,4-b]pyridine-6-carboxamide]	545.77	87.1	322.45	136	–	548.575	–
COC1CN(S(=O)(=O)NC(=O)c2cc(N3CCC(N4CCOCC4)CC3)c3c(C4CCC4)nn(-c4ccc(F)cc4)c3n2)C1 [Compound 484, 3-cyclobutyl-1-(4-fluorophenyl)-N-(3-methoxyazetidine-1-sulfonyl)-4-[4-(morpholin-4-yl)piperidin-1-yl]-1H-pyrazolo[3,4-b]pyridine-6-carboxamide]	485.6	142	216.9	124	–	380	–
O=C(NS(=O)(=O)N1CCOCC1)c1cc(N2CCC(N3CCOCC3)CC2)c2c(C3CCC3)nn(-c3ccc(F)cc3)c2n1 [Compound 487, 3-cyclobutyl-1-(4-fluorophenyl)-N-(morpholine-4-sulfonyl)-4-[4-(morpholin-4-yl)piperidin-1-yl]-1H-pyrazolo[3,4-b]pyridine-6-carboxamide]	404.63	69	203.53	175	–	340	–
CC(=O)N1CCN(C2CCN(c3cc(C(=O)NS(=O)(=O)N(C)C)nc4c3c(C3CCC3)nn4-c3ccc(F)cc3)CC2)CC1 [Compound 493, 4-[4-(4-acetylpiperazin-1-yl)piperidin-1-yl]-3-cyclobutyl-N-(dimethylsulfamoyl)-1-(4-fluorophenyl)-1H-pyrazolo[3,4-b]pyridine-6-carboxamide]	480.78	94.6	275.2	175	371	271.4141	–
O=C(NS(=O)(=O)C1CCOC1)c1cc(N2CCC(CN3CCOCC3)CC2)c2c(C3CCC3)nn(-c3ccc(F)cc3)c2n1 (centres unmarked) [Compound 495, 3-cyclobutyl-1-(4-fluorophenyl)-4-{4-[(morpholin-4-yl)methyl]piperidin-1-yl}-N-(oxolane-3-sulfonyl)-1H-pyrazolo[3,4-b]pyridine-6-carboxamide]	469.08	66.2	242.05	217	–	–	262.4635
CN(C)S(=O)(=O)NC(=O)c1cc(N2CCC(N3CCC(C#N)CC3)CC2)c2c(C3CCC3)nn(-c3ccc(F)cc3)c2n1 [Compound 522, 4-(4-cyano[1,4'-bipiperidin]-1'-yl)-3-cyclobutyl-N-(dimethylsulfamoyl)-1-(4-fluorophenyl)-1H-pyrazolo[3,4-b]pyridine-6-carboxamide]	525.66	79.8	317.9	114	21.9	666.6667	–
CN(C)S(=O)(=O)NC(=O)c1cc(N2CCC(N3CC(C#N)C3)CC2)c2c(C3CCC3)nn(-c3ccc(F)cc3)c2n1 [Compound 523, 4-[4-(3-cyanoazetidin-1-yl)piperidin-1-yl]-3-cyclobutyl-N-(dimethylsulfamoyl)-1-(4-fluorophenyl)-1H-pyrazolo[3,4-b]pyridine-6-carboxamide]	451.33	100	236.53	124	–	–	460.2177
CN(C)S(=O)(=O)NC(=O)c1cc(N2CCC(N3CCC(F)CC3)CC2)c2c(C3CCC3)nn(-c3ccc(F)cc3)c2n1 [Compound 525, 3-cyclobutyl-N-(dimethylsulfamoyl)-4-(4-fluoro[1,4'-bipiperidin]-1'-yl)-1-(4-fluorophenyl)-1H-pyrazolo[3,4-b]pyridine-6-carboxamide]	460.3	74	274.75	138	50.3	477.2665	–
CN(C)S(=O)(=O)NC(=O)c1cc(N2CCC(N3CCC(F)(F)CC3)CC2)c2c(C3CCC3)nn(-c3ccc(F)cc3)c2n1 [Compound 526, 3-cyclobutyl-4-(4,4-difluoro[1,4'-bipiperidin]-1'-yl)-N-(dimethylsulfamoyl)-1-(4-fluorophenyl)-1H-pyrazolo[3,4-b]pyridine-6-carboxamide]	472.58	107	269.23	153	14.2	400	–
CN(C)S(=O)(=O)NC(=O)c1cc(N2CCC(N3CCOC(C#N)C3)CC2)c2c(C3CCC3)nn(-c3ccc(F)cc3)c2n1 (centres unmarked) [Compound 527, 4-[4-(2-cyanomorpholin-4-yl)piperidin-1-yl]-3-cyclobutyl-N-(dimethylsulfamoyl)-1-(4-fluorophenyl)-1H-pyrazolo[3,4-b]pyridine-6-carboxamide]	500	53.8	295.95	79.1	–	370.693	–
CC(C)Oc1cc(-n2nc(C3CCC3)c3c(N4CCC(N5CCOCC5)CC4)cc(C(=O)NS(=O)(=O)N(C)C)nc32)ccn1 [Compound 529, 3-cyclobutyl-N-(dimethylsulfamoyl)-4-[4-(morpholin-4-yl)piperidin-1-yl]-1-{2-[(propan-2-yl)oxy]pyridin-4-yl}-1H-pyrazolo[3,4-b]pyridine-6-carboxamide]	444.13	22.6	278.55	60.6	19.1	520	–
